Test results as given in article PMC10033409, “Autoregulation of GPCR signalling through the third intracellular loop” (Nature, 2023).
Several values for one entry are separate records, joined by “and”; a condition that tells them apart may be missing. Equal entries are not always repeated. Structures can show the parent of a compound that is named as a salt. Where two headings read alike, the source gives them in different places.

Key:
[1] = tested on: β2AR; details: for competition binding curve vs isoproterenol (Extended Data Figure 3L): replicates 1-3 and Average; for competition binding curve vs isoproterenol (Extended Data Figure 3L), Fit: fitted curve
Method: Reactions were equilibrated, washed, and measured following the same procedure listed above for the radioligand antagonist-binding assay. […] Weighted averages of these IC50 values were used for comparison purposes and inhibition constant (Ki) calculations. […] Binding assays were performed in technical duplicates. Three biological replicates were collected with different membrane preparations for each replicate.

[2] = tested on: PTH1R; assay: cAMP accumulation, PTH1R; format: cell-based, human; details: PTH1R B2AR ICL3
Method: One millilitre of medium was removed from each well containing transfected cells. The remaining volume was used to gently shear and resuspend the cells by pipetting. The cell mixture was centrifuged (3 min, 300g) and media was removed using a vacuum manifold. […] The cells were washed once by repeating this procedure.
For all other second messenger assays, expression level and cell density of each condition was estimated through fluorescence. Fluorescence spectra for mCerulean (Horiba Fluoromax 4, excitation 430 nm, emission scan 450–600 nm, bandpass 4 nm) and mCitrine (Horiba Fluoromax 4, excitation 490 nm, emission scan 500–600 nm, bandpass 4 nm) were acquired for each condition. Cells were resuspended at 350,000 ± 30,000 fluorescence counts at a wavelength representing optical density of the sample (excitation 430 nm/emission 450 nm), corresponding with 2 × 10^6 ± 5 × 10^5 cells per m^l. This was confirmed by counting the cells on a haemocytometer (Countess II).
Resuspended cells were added 1:1 with a 2× concentration of ligand (10 µl final) into an opaque 384-well flat bottom plate (Greiner Bio-One). […] For dose–response curves, a saturating concentration of forskolin (10 µM) was included as a control to measure cAMP stimulation independent of the transfected receptor. […] For all other experiments, plates were incubated at room temperature for 10 min. […] Reactions were quenched and processed for the cAMP-Glo Assay (Promega) following the manufacturer’s instructions. Luminescence was measured on a Tecan Spark plate reader (500 ms integration, one measurement per well).

[3] = tested on: β2AR–Gs peptide FRET sensor; assay: ∆FRET assay, β2AR–Gs peptide SPASM FRET sensor; details: isoproterenol 100 µM
[4] = Wild-Type + Gs-Peptide, Isoproterenol 1.00E-09 M
[5] = Wild-Type + Gs-Peptide, Isoproterenol 1.00E-10 M
[6] = Wild-Type, Isoproterenol 1.00E-04 M
[7] = Wild-Type, Isoproterenol 1.00E-05 M
[8] = Wild-Type, Isoproterenol 1.00E-06 M
[9] = Wild-Type, Isoproterenol 1.00E-07 M
[10] = Wild-Type, Isoproterenol 1.00E-08 M
[11] = Wild-Type, Isoproterenol 1.00E-09 M
[12] = Wild-Type, Isoproterenol 1.00E-10 M
[13] = Wild-Type, Isoproterenol 5.00E-06 M
[14] = Wild-Type, Isoproterenol 5.00E-07 M

CC(C)NCC(O)c1ccc(O)c(O)c1 (stereo not drawn) [Isoproterenol, isoproterenol (+)-bitartrate salt]
competition binding curve vs isoproterenol (Extended Data Figure 3L) ([1]; Wild-Type + Gs-Peptide, Isoproterenol 1.00E-08 M): 91.27 and 90.42 and 91.58 and 91.80
competition binding curve vs isoproterenol (Extended Data Figure 3L), Fit [1, 4]: 98.02
competition binding curve vs isoproterenol (Extended Data Figure 3L) [1, 4]: 99.15 and 99.41 and 97.66 and 100.39
competition binding curve vs isoproterenol (Extended Data Figure 3L), Fit [1, 5]: 98.82
competition binding curve vs isoproterenol (Extended Data Figure 3L) [1, 5]: 99.26 and 100.00 (2×) and 97.78
competition binding curve vs isoproterenol (Extended Data Figure 3L) ([1]; Wild-Type, Isoproterenol 1.00E-03 M): -0.10 and -0.40 and -0.34 and -0.28
competition binding curve vs isoproterenol (Extended Data Figure 3L), Fit [1, 6]: 0.67
competition binding curve vs isoproterenol (Extended Data Figure 3L) [1, 6]: 0.94 and 0.31 and 1.43 and 0.89
competition binding curve vs isoproterenol (Extended Data Figure 3L), Fit [1, 7]: 5.86
competition binding curve vs isoproterenol (Extended Data Figure 3L) [1, 7]: 6.24 and 5.08 and 7.57 and 6.30
competition binding curve vs isoproterenol (Extended Data Figure 3L), Fit [1, 8]: 32.07
competition binding curve vs isoproterenol (Extended Data Figure 3L) [1, 8]: 32.68 and 27.33 and 35.77 and 31.93
competition binding curve vs isoproterenol (Extended Data Figure 3L), Fit [1, 9]: 78.70
competition binding curve vs isoproterenol (Extended Data Figure 3L) [1, 9]: 79.40 and 70.32 and 85.20 and 78.31
competition binding curve vs isoproterenol (Extended Data Figure 3L), Fit [1, 10]: 97.15
competition binding curve vs isoproterenol (Extended Data Figure 3L) [1, 10]: 99.13 and 95.83 and 100.15 and 98.37
competition binding curve vs isoproterenol (Extended Data Figure 3L), Fit [1, 11]: 99.60
competition binding curve vs isoproterenol (Extended Data Figure 3L) [1, 11]: 96.70 and 99.42 and 102.28 and 99.47
competition binding curve vs isoproterenol (Extended Data Figure 3L), Fit [1, 12]: 99.85
competition binding curve vs isoproterenol (Extended Data Figure 3L) [1, 12]: 100.00 and 99.63 and 97.46 and 99.03
competition binding curve vs isoproterenol (Extended Data Figure 3L), Fit [1, 13]: 10.54
competition binding curve vs isoproterenol (Extended Data Figure 3L) [1, 13]: 11.05 and 8.39 and 11.22 and 10.22
competition binding curve vs isoproterenol (Extended Data Figure 3L), Fit [1, 14]: 46.03
competition binding curve vs isoproterenol (Extended Data Figure 3L) [1, 14]: 47.06 and 40.75 and 51.12 and 46.31
% Cyanopindolol Bmax, Average ([1]; β2AR ∆ICL3 + 30 µM Gq-peptide, isoproterenol 3.00E-06 M): 34.71%
% Cyanopindolol Bmax, Average ([1]; β2AR ∆ICL3 + 30 µM Gq-peptide, isoproterenol 5.00E-06 M): 27.06%
% Cyanopindolol Bmax, Average ([1]; β2AR ∆ICL3 + 30 µM Gq-peptide, isoproterenol 5.00E-07 M): 70.37%
% Cyanopindolol Bmax, Average ([1]; β2AR ∆ICL3, isoproterenol 3.00E-06 M): 30.73%
% Cyanopindolol Bmax, Average ([1]; β2AR ∆ICL3, isoproterenol 5.00E-06 M): 15.67%
% Cyanopindolol Bmax, Average ([1]; β2AR ∆ICL3, isoproterenol 5.00E-07 M): 65.90%
cAMP (Isoproterenol/Forskolin Maximum), Average ([2]; [Isoproterenol] log(M) -5): 0.73
cAMP (Isoproterenol/Forskolin Maximum), Average ([2]; [Isoproterenol] log(M) -6): 0.71
cAMP (Isoproterenol/Forskolin Maximum), Average ([2]; [Isoproterenol] log(M) -7): 0.69
cAMP (Isoproterenol/Forskolin Maximum), Average ([2]; [Isoproterenol] log(M) -8): 0.49
cAMP (Isoproterenol/Forskolin Maximum), Average ([2]; [Isoproterenol] log(M) -8.30103): 0.39
cAMP (Isoproterenol/Forskolin Maximum), Average ([2]; [Isoproterenol] log(M) -9): 0.0653
cAMP (Isoproterenol/Forskolin Maximum), Average ([2]; [Isoproterenol] log(M) -9.30103): 0.0238
cAMP (Isoproterenol/Forskolin Maximum), Average ([2]; [Isoproterenol] log(M) -10): -0.0474
cAMP (Isoproterenol/Forskolin Maximum), Average ([2]; [Isoproterenol] log(M) -11): 0.02
cAMP (Isoproterenol/Forskolin Maximum), Average ([2]; [Isoproterenol] log(M) -12): -0.0165
∆FRET (Isoproterenol - Buffer) ([3]; HVQ-AAA β2AR–Gs peptide sensor, single experiments N 1-5): 0.012 and 0.013 and 0.020
∆FRET (Isoproterenol - Buffer) ([3]; QDG-AAA β2AR–Gs peptide sensor, single experiments N 1-5): 0.021 and 0.017 and 0.027 and 0.030
∆FRET (Isoproterenol - Buffer) ([3]; Wild-Type β2AR–Gs peptide sensor, + 10 µM Gq-peptide, single samples): 0.034 and 0.026 and 0.018
∆FRET (Isoproterenol - Buffer) ([3]; Wild-Type β2AR–Gs peptide sensor, single experiments N 1-5): 0.014 and 0.016 and 0.017 and 0.019
∆FRET (Isoproterenol - Buffer) ([3]; Wild-Type β2AR–Gs peptide sensor, without Gq-peptide, single samples): 0.013 and 0.016 and 0.010 and 0.017 and 0.012
∆FRET (Isoproterenol - Buffer) ([3]; ∆ICL3 β2AR–Gs peptide sensor, without Gq-peptide, single samples): 0.022 and 0.020 and 0.025 and 0.024
